Structures are written as SMILES.

The nature of this data set: Critical temperature and normal boiling point of heat pump working fluids. The format is physicochemical. The following applies: working fluid in a heat pump (TC = 150° C., TE = 100° C.).

In the case of `COCC(F)(F)C(F)C(F)(F)F` (stereo not shown) [1.1.1.2.3.3. hexafluoro butyl methyl ether], the critical temperature is 236 °C and the normal boiling point came out at 87 °C.
The matching figures for `FC(F)(F)C(F)(F)C(F)(F)C1(F)OC(F)(F)C(F)(F)C1(F)F` (stereo not shown) [perfluoro-2-propyloxolane]: 206 °C and 79 °C.

For the origin of these results see patent US4736045A, “Process for fluorinating ethers” (priority 1983, dated 1988).
